{"source": "patent US20040072790A1", "about": "“Safe natural pharmaceutical composition for treating cancer” (priority 2002, published 2004)", "key": {"HL-60 cells": {"test_system": "HL-60 cells", "experiment": "Diversion (differentiation) of human leukemic cells, NBT reduction", "format": "cell-based", "details": "IND, MAT, YLE, LIK, APN and PYE 50 ng/ml, higher NBT (%) means higher normal cells", "description": "HL-60 cells were established from a patient with acute myeloid leukemia. The cells were cultured in culture flasks with RPMI plus 10% FCS\nDifferentiation of HL-60 cells was assessed by their abilities to produced superoxide as measured by reduction of NBT, by NSE staining and by morphology as detected on cytospin preparations stained with Diff-Quick stain Set, and by analysis of membrane-bound differentiation markers with two-color immunofluorescence Briefly, cells were preincubated at 4° C. for 60 min in 10% human AB serum and then with FITC-conjugated mouse IgGI isotype control Analysis of fluorescence was performed on a flow cytometer.\nNBT % indicated percentage of normal cells"}, "gastric cancer cells": {"test_system": "gastric cancer cells", "experiment": "Diversion of gastric cancer cells, NBT", "format": "cell-based", "description": "The gastric cancer cells and normal cells were cultured in PRMI 1640 medium supplement with 10% FCS serum Other method is similar to example 10"}, "Normal cells": {"test_system": "Normal cells", "experiment": "Apoptosis of normal cells", "format": "cell-based", "description": "(§1) Cells ([…] were incubated in 10 ml IMDM plus […] heat-inactivated fetal calf serum. Samples were incubated for 24 hours with various concentrations of drugs Control samples received the same amount of media, without drug addition After 24 hours of incubation the samples were pelleted and fixed in ethanol 705 for 15 minutes at 4° C., after three washes in PBS, the cells were treated with PNase I 0.5 mg/ml for 15 minutes at 37° C. The cells were harvested by centrifugation and resuspended in 50 μg/ml propidium iodide in PBS. Analysis (upon acquisition of 10,000-20,000 events) was performed on a FACscan flow cytometer with the FL2 detector in logarithmic mode, using Lysis II software (Becton Dickinson). Apoptotic cells were located in the hypodiploid region of the histogram, due to chromosome condensation and fragmentation\n(§2) For evaluation of apoptosis by flow cytometry, cells were fixed and permeabilized in 1% paraformaldehyde and ice-cold 70% ethanol Digoxigenin-dUTP was incorporated at the 3′OH ends of the fragmented DNA in the presence of terminal deoxynucleotidyltranserase, and the cells were incubated with FITC-labeled anti-digoxigenin-dUTP and with propidium iodide. Green (apoptotic cells) and orange (total DNA) fluorescence were measured with a FACScan flow cytometer and analyzed with LYSIS It and CELLFIT programs Data were analyzed by Student's t-test P values were considered significant when <0.05.\n(§3) Untreated and treated HL-60 cells collected by centrifugation, washed in phosphate buffered saline and re-suspended at a concentration of 5×10^6 cells and 0.1% RNase A. The mixture was incubated at 37° C. for 30 min and then incubated for an additional 30 min at 37° C. Buffer was added and 25 μl of the tube content transferred to the Horizontal 1.5% agarose gel electrophoresis was performed at 2 V/cm DNA in gels visualized under UV light after staining with ethidium Bromide (5 μg/ml)\nDNA fragmentation assays DNA cleavage was performed, quantitation of fractional solubilized DNA by diphenylamine assay and the percentage of cells harboring fragmented DNA determined by in labeling techniques For the diphenylamine assay, 5×10^6 cells were lysed in 0 5 mL lysis buffer (5 mmol/L Tris-HCI, 20 mmol/L DTA, and 0 5% Triton X-100, pH 8 0) at 4° C. Lysates were centrifuged (15,000 g) for separation of high molecular weight DNA (pellet) and DNA cleavage products (supernatant). DNA was precipitated with 0.5 N perchloric acid and quantitated using diphenylamine reagent. The cell cycle distribution was determined 4 hours after addition of drug and represents mean±SD of 5 independent experiments\n(§4) Apoptosis of HL-60 cells was assessed by changes in cell morphology and by measurement of DNA nicks using the Apop Tag Kkt (Oncor, Gaithersburg, MD). […] These changes are detected on cytospin preparations stained with Diff-Quick Stain Set Apoptotic cells were enumerated in a total of about 300 cells by light microscopy"}, "[1]": {"test_system": "Human leukemia cells (HL-60)", "experiment": "Apoptosis of human leukemia cells", "format": "cell-based", "description": "Human leukemia cells (HL-60) were grown in RPMI Medium 1640 supplemented with 10% (v/v) heat-inactivated FBS (56° C. for 30 min) at 37° C. in a humidified 95% air/5% CO2 atmosphere. Cells were seeded at a level of 2×10^5 cells/ml Cells were allowed to attain a maximum density of 1 2×10^6 cells/ml before being passed by dilution into fresh medium to a concentration of 2×10^5 cells/ml Cell pellets containing 5×10^6 cells were fixed with 2 5% glutaraldehyde in cacodylate buffer (pH 7 4), dehydrated through graded alcohol, and infiltrated with LX-112 epoxy resin. After overnight polymerization at 60° C. 1-μm sections were cut with glass knives using a microtome.\nas §1, §2, §3\nDNA fragmentation assays DNA cleavage was performed, quantitation of fractional solubilized DNA by diphenylamine assay and the percentage of cells harboring fragmented DNA determined by in labeling techniques For the diphenylamine assay, 5×10^6 cells were lysed in 0 5 mL lysis buffer (5 mmol/L Tris-HCI, 20 mmol/L DTA, and 0 5% Triton X-100, pH 8 0) at 4° C. […] DNA was precipitated with 0.5 N perchloric acid and quantitated using diphenylamine reagent. The cell cycle distribution was determined 4 hours after addition of drug and represents mean±SD of 5 independent experiments\nas §4"}, "human cancer cells": {"test_system": "human cancer cells", "experiment": "Inhibition of tumor cell proliferation", "format": "cell-based", "details": "1 μg/ml drug, 72 hours", "description": "Human tumor cell lines Hela leukemia HL-60, malignant melanocarcinoma B16, oral epidermoid carcinoma (KB), lung carcinoma (A549), breast carcinoma MCF-7, adenocarcinoma of stomach Animal tumor cell lines Walker carcinoma, LLC-WRC-256, malignant melanoma (RMMI 1846), 3T3, and S-180 sarcoma (CCRF-180). All lines were routinely cultured in the RPMI1640 medium supplemented 20% fetal calf serum. The experiment was carried out in 96 microplate, each well had 5×10^5 cells and given desired concentration of 1 μg /ml (1×10^−6 g/ml) drug Then the plate was incubated at 37° C. in an atmosphere of humidified air enriched with 5 percent carbon dioxide for 72 hours\nInhibition percent rate of tumor cell proliferation was obtained according to the bellow formula [formula]"}, "L615 transplanted tumor": {"test_system": "L615 transplanted tumor", "experiment": "Growth of transplanted tumor in mice", "format": "in vivo", "details": "intraperitoneally, other drugs 20 mg/kg, sacrificed on the 12th day", "description": "Male mice, weight 20-22 g, were used in the experiment 1×10^7 tumor cells were injected to mouse and other drugs injected intraperitoneally began second day. All mice were sacrificed on the 12th day, isolated the tumor and weighed and calculated the inhibition rate of tumor weight\nThe effect of other drugs and HHT on the growth of animal transplanted tumor as illustrated by the Table 6 20 mg/kg of other drugs could inhibit the growth of L615 transplanted tumor."}, "tyrosine kinase (TK)": {"test_system": "tyrosine kinase (TK)", "experiment": "Tyrosine kinase (TK) assay of HL-60 leukemia cells", "format": "cell-based, human", "description": "Tyrosine kinase (TK) Assay. TK was measured by a modification of the method of Braun et al Briefly, H-60 leukemia cells were plated at a density of 5×10^5 cells in […], and divided control and treatments groups for incubation 24 hours at 37° C. with 5% CO2. The cells were collected by scraping, washed twice with phosphate-buffered saline, and resuspended at density of 10^6 cells/ml in 5 mM HEPESs buffer (pH 7.4). The cells were then resuspended in 1 ml of buffer containing 5 mM HEPES (pH 7.6), 1 mM MgCl2 and ImM EDTA, then placed on ice bath The cell membrane was disrupted by ultra sound and centrifuged at 1,000×g for 10 minutes The supernatant was ultra centrifuged at 30,000×g for 30 minutes at 4° C. The pellet was resuspended in 0 3 ml of buffer containing 25 mM HEOES, centrifuged at 12,000×g for 5 minutes The resulting supernatant was used for TK assay. Content of protein was determined 10 μg of protein placed in 20 mM HEPES (pH 7 6), 15 mM MgCl2, 10 nM ZnCl2 and 5% (v/v) nonidet P-40, with or without substrate [glutamic acid (GT), mg/ml]. After 5 minutes incubation at 25° C., the reaction was initiated by the addition of 25 μM [γ^32P] ATP (3 ci/mmol) After 10 minutes, the reaction was stopped by the addition of 20 mM cold ATP. 50 μl of the mixtures were spotted on glass microfiber filter discs and washed three times with cold trichloroacetic acid (TCA), contained 1 mM sodium pyrophosphate Air dried. Radioactivity was determined by liquid scintillation spectrometry. The net TK activity was determined after correcting for endogenous TK activity"}, "[2]": {"test_system": "NNK-induced pulmonary adenomas", "experiment": "NNK-induced lung tumorigenesis", "format": "in vivo", "details": "mice, drug by injection 20 mg/kg daily, 10 μmol NNK i.p., sixteen weeks", "description": "Every group had 20 mice For treatment group, each mouse was gave Drug by injection at dose of 20 mg/kg daily. For control group, each mouse was gave same volume of physiological saline Three days later, mice were gave 10 μmol NNK (in 0.1 ml saline) by i.p injection. Sixteen weeks after these treatments the mice were killed and pulmonary adenomas were counted The statistical significance of bioassay data was determined by student's test."}, "[3]": {"test_system": "lipid peroxidation, liver microsome", "experiment": "Lipid peroxidation in liver microsome (MDA, TBA)", "format": "biochemical, rats", "details": "drug 50 μM, 37° C.", "description": "The liver microsome (1 mg protein) in 0.15 M KCl, 0 25 M Tris-HCl buffer, pH 7.5, 2 mμ ADP, 10 μM FeSO4 and Drug B (50 μM) were incubated at 37° C. for 5 min The reactions were terminated after 30 min by added 2 ml thiobarbituric acid (TBA) and content of the malondialdehyde (MDA) formed was determined."}, "carcinogen-DNA binding": {"test_system": "carcinogen-DNA binding", "experiment": "Inhibition of carcinogen-DNA binding", "format": "cell-based", "description": "Cells were maintained in 75-cm^2 tissue culture flask with media supplemented with retinoic acid (0 1 μg/ml) and epinephrine (0 5 μg/ml) The cells were passage when they reached approximately 80% confluence and were maintained at 37° C. in 5% CO2. Cells were plated at a density of 5×10^5 cells/well in 6-well tissue culture plates and allowed to incubated for 18 h at 37° C. in 5% CO2 Following incubation, the DNA was harvested and resuspended in Tris-EDTA buffer RNA was removed by treating with RNase T1 and RNase A at 37° C. for 1 h. An aliquot was used for determining the DNA content by the absorbency at 260 nm, and the rest of the sample was used to determine the radioactivity; the percentage inhibition of carcinogen-DNA binding was determined by measuring the cpm/mg of DNA in the carcinogen"}, "[4]": {"experiment": "Toxic doses for mice (repeated injection)", "format": "in vivo", "details": "38 normal mice, injection 2 mg/kg/day×5, observation period of 5 days", "description": "Toxic doses for dogs 0 16 mg/kg/day×7 of HHT was established as the toxic doses. Toxic doses for mice In 38 normal mice after injection of HHT of 2 mg/kg/day×5 with the observation period of 5 days about 50% of the mice died."}}, "data": [{"substance": "Homoharringtonine [HHT]", "values": [{"measurement": "NBT (%)", "setting": "HL-60 cells", "value": "65 ± 7.0", "unit": "%"}, {"measurement": "NBT (%)", "setting": "gastric cancer cells", "value": "58 ± 8.9", "unit": "%"}, {"measurement": "Apoptosis (%)", "setting": "Normal cells; HHT 10 ng/ml", "value": "16.5 ± 2.0", "unit": "%"}, {"measurement": "Apoptosis (%)", "setting": "Normal cells; HHT 50 ng/ml", "value": "18.5 ± 2.5", "unit": "%"}, {"measurement": "Apoptosis (%)", "setting": "Normal cells; HHT 50 ng/ml alone or with 50 ng/ml of the other drug (Table 4)", "value": "18.5 ± 2.5", "unit": "%"}, {"measurement": "Apoptosis (%)", "setting": "Normal cells; HHT 100 ng/ml", "value": "22.0 ± 3.5", "unit": "%"}, {"measurement": "Apoptosis (%)", "setting": "Normal cells; HHT 500 ng/ml", "value": "29.5 ± 5.2", "unit": "%"}, {"measurement": "Apoptosis (%)", "setting": "[1]; Human leukemia cell, HHT 50 ng/ml alone or with 50 ng/ml of the other drug (Table 4)", "value": "42.8 ± 5.2", "unit": "%"}, {"measurement": "Apoptosis (%)", "setting": "[1]; Human leukemia cells, HHT 10 ng/ml", "value": "33.8 ± 4.8", "unit": "%"}, {"measurement": "Apoptosis (%)", "setting": "[1]; Human leukemia cells, HHT 50 ng/ml", "value": "42.8 ± 5.2", "unit": "%"}, {"measurement": "Apoptosis (%)", "setting": "[1]; Human leukemia cells, HHT 100 ng/ml", "value": "60.2 ± 8.9", "unit": "%"}, {"measurement": "Apoptosis (%)", "setting": "[1]; Human leukemia cells, HHT 500 ng/ml", "value": "92.0 ± 10.8", "unit": "%"}, {"measurement": "Inhibition (%) of growth of cancer cells", "setting": "human cancer cells", "value": "73.8 ± 8.1", "unit": "%"}, {"measurement": "Inhibition (%) of transplanted tumor (tumor weight)", "setting": "L615 transplanted tumor", "value": "68 ± 7.2", "unit": "%"}, {"measurement": "inhibition of TK activity", "setting": "tyrosine kinase (TK); HL-60, 10^−8 M", "value": 12.2, "unit": "%"}, {"measurement": "% of control activity (TK)", "setting": "tyrosine kinase (TK); HL-60 leukemia cells, 10^−6 M, 24 hours", "value": 0.6, "unit": "%"}, {"measurement": "% of control activity (TK)", "setting": "tyrosine kinase (TK); HL-60 leukemia cells, 10^−7 M, 24 hours", "value": "21.5 ± 4.0", "unit": "%"}, {"measurement": "% of control activity (TK)", "setting": "tyrosine kinase (TK); HL-60 leukemia cells, 10^−8 M, 24 hours", "value": "87.8 ± 12", "unit": "%"}, {"measurement": "% of control activity (TK)", "setting": "tyrosine kinase (TK); Table 8, HHT alone or with other drug, concentration not given", "value": "21.5 ± 4.0", "unit": "%"}, {"measurement": "Tumor incidence (%)", "setting": "[2]", "value": "35.8 ± 4.5", "unit": "%"}, {"measurement": "Nmoles MDA/mg protein", "setting": "[3]", "value": "8.5 ± 1.0", "unit": "Nmoles MDA/mg protein"}, {"measurement": "Inhibition (%) of carcinogen-DNA binding", "setting": "carcinogen-DNA binding", "value": "56.8 ± 6.2", "unit": "%"}, {"measurement": "mice died", "setting": "[4]", "value": "about 50%"}]}]}
